Laboratory results reported in patent US20160221974A1, “SODIUM CHANNEL MODULATORS FOR THE TREATMENT OF PAIN AND DIABETES” (CHROMOCELL CORPORATION, priority 2013, published 2016).

Columns and labels:
[1] = molecular target: T1, hNaV1.7 (Homo sapiens, UniProt Q15858); experiment: FDSS Membrane Potential In-Vitro Assay; assay type: cell-based; conditions: stimulation with veratridine and scorpion venom, read-out: NaV1.7 IC50
T1 construct: expressed in transfected cells

[2] = molecular target: T2, NaV1.7 (Homo sapiens, UniProt Q15858); experiment: Patchliner Electrophysiological In-Vitro Assay (NaV1.7); assay type: cell-based; conditions: Patchliner patch clamp, HEK293, holding at V1/2
T2 construct: expressed in transfected cells
T2 sequence (Q15858 whole entry): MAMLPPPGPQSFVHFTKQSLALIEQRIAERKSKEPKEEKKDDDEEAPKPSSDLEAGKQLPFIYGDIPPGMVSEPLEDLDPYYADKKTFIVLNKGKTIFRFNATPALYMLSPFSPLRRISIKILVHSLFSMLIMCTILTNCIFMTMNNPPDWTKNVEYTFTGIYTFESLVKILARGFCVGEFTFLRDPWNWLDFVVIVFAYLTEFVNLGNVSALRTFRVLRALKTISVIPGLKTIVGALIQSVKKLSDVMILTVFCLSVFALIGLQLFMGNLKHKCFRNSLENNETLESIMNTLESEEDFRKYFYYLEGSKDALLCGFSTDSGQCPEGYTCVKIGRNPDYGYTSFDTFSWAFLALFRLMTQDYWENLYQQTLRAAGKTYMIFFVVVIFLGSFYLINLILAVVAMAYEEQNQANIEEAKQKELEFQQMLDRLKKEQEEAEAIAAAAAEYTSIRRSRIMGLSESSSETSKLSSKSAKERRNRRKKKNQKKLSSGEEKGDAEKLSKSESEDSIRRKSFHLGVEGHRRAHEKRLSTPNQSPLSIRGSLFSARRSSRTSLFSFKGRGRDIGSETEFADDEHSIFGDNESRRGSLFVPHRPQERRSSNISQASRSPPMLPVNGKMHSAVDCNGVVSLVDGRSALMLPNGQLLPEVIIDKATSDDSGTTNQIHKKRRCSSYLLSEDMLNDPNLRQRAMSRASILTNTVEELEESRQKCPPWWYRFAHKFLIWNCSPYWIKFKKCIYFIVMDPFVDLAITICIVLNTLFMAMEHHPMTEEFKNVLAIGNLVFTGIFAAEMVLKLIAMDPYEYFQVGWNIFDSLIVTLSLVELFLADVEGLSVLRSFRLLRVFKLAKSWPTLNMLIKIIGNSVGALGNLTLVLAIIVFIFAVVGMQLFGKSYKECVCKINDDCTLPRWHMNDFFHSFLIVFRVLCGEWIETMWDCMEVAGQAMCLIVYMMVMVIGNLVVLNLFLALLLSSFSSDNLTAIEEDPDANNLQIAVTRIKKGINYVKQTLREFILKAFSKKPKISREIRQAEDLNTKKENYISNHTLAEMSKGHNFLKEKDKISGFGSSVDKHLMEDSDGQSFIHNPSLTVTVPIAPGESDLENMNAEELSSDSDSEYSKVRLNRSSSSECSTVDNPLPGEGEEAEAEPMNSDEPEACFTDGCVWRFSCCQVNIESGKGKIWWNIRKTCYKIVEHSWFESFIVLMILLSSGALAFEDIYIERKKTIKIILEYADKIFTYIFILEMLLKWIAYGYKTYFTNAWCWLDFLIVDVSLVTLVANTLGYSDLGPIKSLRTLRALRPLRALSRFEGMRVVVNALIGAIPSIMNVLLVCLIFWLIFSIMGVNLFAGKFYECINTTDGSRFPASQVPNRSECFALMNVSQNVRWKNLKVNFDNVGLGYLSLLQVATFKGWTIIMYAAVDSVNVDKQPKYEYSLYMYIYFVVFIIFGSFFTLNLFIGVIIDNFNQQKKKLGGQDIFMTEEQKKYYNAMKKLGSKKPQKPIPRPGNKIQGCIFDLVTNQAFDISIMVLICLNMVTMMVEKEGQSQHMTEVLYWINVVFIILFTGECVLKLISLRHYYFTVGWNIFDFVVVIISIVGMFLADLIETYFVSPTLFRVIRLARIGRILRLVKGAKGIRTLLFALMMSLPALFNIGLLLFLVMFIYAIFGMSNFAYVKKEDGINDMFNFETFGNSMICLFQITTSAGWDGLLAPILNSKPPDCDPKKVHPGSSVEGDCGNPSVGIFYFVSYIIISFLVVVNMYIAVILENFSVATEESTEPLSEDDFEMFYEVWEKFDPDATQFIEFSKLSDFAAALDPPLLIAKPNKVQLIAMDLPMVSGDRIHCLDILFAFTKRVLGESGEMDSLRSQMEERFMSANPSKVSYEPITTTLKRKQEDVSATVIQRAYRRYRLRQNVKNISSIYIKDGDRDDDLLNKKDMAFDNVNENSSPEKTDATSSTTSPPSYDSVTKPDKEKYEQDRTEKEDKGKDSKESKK
T2 sequence (Q07699 19-218 partner): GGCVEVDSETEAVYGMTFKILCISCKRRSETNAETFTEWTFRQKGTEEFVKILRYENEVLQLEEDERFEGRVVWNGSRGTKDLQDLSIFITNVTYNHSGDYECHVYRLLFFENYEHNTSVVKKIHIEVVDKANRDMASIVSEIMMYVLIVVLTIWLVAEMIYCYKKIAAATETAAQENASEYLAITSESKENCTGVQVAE
T2 sequence (O60939 30-215 partner): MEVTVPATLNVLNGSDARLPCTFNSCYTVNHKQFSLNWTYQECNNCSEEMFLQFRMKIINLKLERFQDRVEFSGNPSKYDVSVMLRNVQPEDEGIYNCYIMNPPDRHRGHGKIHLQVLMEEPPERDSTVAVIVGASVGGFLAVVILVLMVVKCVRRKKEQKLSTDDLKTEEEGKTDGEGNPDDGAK
Description: In vitro assays were performed in recombinant cell line that stably express a heterotrimeric protein of interest from an introduced nucleic acid encoding the alpha subunit (hNav1.7, SCN9A), the beta subunit (SCNB1) and the beta subunit (SCNB2). The cell line was engineered using Human Embryonic Kidney 293 cells as host background. Additional cell lines stably expressing recombinant Nav1.7 or Nav1.5 alpha subunit alone or in combination with various beta subunits can also be used in in-vitro assays.
The recording of sodium current from stable HEK293 cell lines expressing NaV1.7 or NaV1.5 was done on a Patchliner® instrument, Nanion Technologies. The Patchliner® is a fully automated bench-top patch clamp platform and can record simultaneously from up to eight single cells with GΩ seals.
For patch-clamp experiments, cells were grown under standard culturing conditions in Dulbecco's Modified Eagles medium supplemented with 10% fetal bovine serum, glutamine and HEPES. Cells were harvested and kept in suspension for up to 4 hours with no significant change in quality or ability to patch. Whole cell patch clamp recordings were conducted according to Nanion's standard procedure for the Patchliner®. Experiments were conducted at room temperature.
Voltage protocols were designed to establish: 1) peak current amplitude (Imax), 2) test potential (Vmax) and 3) half-inactivation potential (V1/2) for each of the eight individual cells. To determine V1/2, a standard steady-state inactivation protocol was executed using a series of fifteen 500 ms depolarizing pre-pulses in 10 mV increments (starting at −130 mV) and immediately followed by a 10 ms test pulse to Vmax. To estimate test compound affinity to the inactivated state of sodium channel (Ki), the holding potential for each cell was set automatically to the V1/2 calculated from a steady-state inactivation data. The current was activated with the following voltage protocol: holding at V1/2 for 2-5 seconds, return to the −120 mV for 5-10 ms to relieve fast inactivation, stepping to test potential (Vmax) for 10-20 ms. This voltage protocol was repeated every 10 seconds to establish the baseline with 2-3 buffer additions followed by the test compound addition. The dose-dependent inhibition was analyzed using Nanion's Data Analysis Package.

T1 sequence (Q15858 whole entry): as the sequence (Q15858 whole entry) above
T1 sequence (Q07699 19-218 partner): as the sequence (Q07699 19-218 partner) above
T1 sequence (O60939 30-215 partner): as the sequence (O60939 30-215 partner) above

| IC50 [2] | Compound | IC50 [1] |
| --- | --- | --- |
|  | CC(C)OC(=O)CNCCCc1cc(Cl)ccc1Oc1cc(F)c(S(=O)(=O)Nc2nccs2)cc1Cl [Compound 51, isopropyl 2-((3-(5-chloro-2-(2-chloro-5-fluoro-4-(N-(thiazol-2-yl)sulfamoyl)phenoxy)phenyl)propyl)amino)acetate] | 500 to 1000 nM |
| 100 to 1000 nM | O=C(O)CCNCCCc1cc(F)ccc1Oc1cc(F)c(S(=O)(=O)Nc2cscn2)cc1Cl [Compound 25, 3-((3-(2-(2-chloro-5-fluoro-4-(N-(thiazol-4-yl)sulfamoyl)phenoxy)-5-fluorophenyl)propyl)amino)propanoic acid] |  |
| < 100 nM | C#CCN(CCCc1cc(Cl)ccc1Oc1cc(F)c(S(=O)(=O)Nc2nccs2)cc1F)CC(=O)O [Compound 67, 2-((3-(5-chloro-2-(2,5-difluoro-4-(N-(thiazol-2-yl)sulfamoyl)phenoxy)phenyl)propyl)(prop-2-yn-1-yl)amino)acetic acid] |  |
|  | CC(C)CCOC(=O)CNCCCc1cc(Cl)ccc1Oc1cc(F)c(S(=O)(=O)Nc2nccs2)cc1Cl [Compound 50, isopentyl 2-((3-(5-chloro-2-(2-chloro-5-fluoro-4-(N-(thiazol-2-yl)sulfamoyl)phenoxy)phenyl)propyl)amino)acetate] | 500 to 1000 nM |
|  | O=S(=O)(Nc1nccs1)c1cc(Cl)c(Oc2ccc(Cl)cc2CCCNc2cn[nH]c2)cc1F [Compound 42, 4-(2-(3-((1H-pyrazol-4-yl)amino)propyl)-4-chlorophenoxy)-5-chloro-2-fluoro-N-(thiazol-2-yl)benzenesulfonamide] | 1000 to 20000 nM |
|  | CS(=O)(=O)CCNCCCc1cc(Cl)ccc1Oc1cc(F)c(S(=O)(=O)Nc2nccs2)cc1Cl [Compound 59, 5-chloro-4-(4-chloro-2-(3-((2-(methylsulfonyl)ethyl)amino)propyl)phenoxy)-2-fluoro-N-(thiazol-2-yl)benzenesulfonamide] | 100 to 500 nM |
|  | O=S(=O)(Nc1cscn1)c1cc(Cl)c(Oc2ccc(Cl)cc2CCCN2CCn3ccnc3C2)cc1F [Compound 55, 5-chloro-4-(4-chloro-2-(3-(5,6-dihydroimidazo[1,2-a]pyrazin-7(8H)-yl)propyl)phenoxy)-2-fluoro-N-(thiazol-4-yl)benzenesulfonamide] | 100 to 500 nM |
| < 100 nM | C#CCN(CCCc1cc(Cl)ccc1Oc1cc(F)c(S(=O)(=O)Nc2nccs2)cc1Cl)CCC(=O)O [Compound 66, 3-((3-(5-chloro-2-(2-chloro-5-fluoro-4-(N-(thiazol-2-yl)sulfamoyl)phenoxy)phenyl)propyl)(prop-2-yn-1-yl)amino)propanoic acid] |  |
| < 100 nM | CCCN(CCCc1cc(Cl)ccc1Oc1cc(F)c(S(=O)(=O)Nc2nccs2)cc1Cl)CC(=O)O [Compound 65, 2-((3-(5-chloro-2-(2-chloro-5-fluoro-4-(N-(thiazol-2-yl)sulfamoyl)phenoxy)phenyl)propyl)(propyl)amino)acetic acid] |  |
| < 100 nM | O=C(O)CCNCCCc1cc(Cl)ccc1Oc1cc(F)c(S(=O)(=O)Nc2nccs2)cc1Cl [Compound 29, 3-((3-(5-chloro-2-(2-chloro-5-fluoro-4-(N-(thiazol-2-yl)sulfamoyl)phenoxy)phenyl)propyl)amino)propanoic acid] |  |
| < 100 nM | C#CCN(CCCc1cc(Cl)ccc1Oc1cc(F)c(S(=O)(=O)Nc2cscn2)cc1Cl)CC(=O)O [Compound 61, 2-((3-(5-chloro-2-(2-chloro-5-fluoro-4-(N-(thiazol-4-yl)sulfamoyl)phenoxy)phenyl)propyl)(prop-2-yn-1-yl)amino)acetic acid] |  |
|  | CCOC(=O)CNCCCc1cc(Cl)ccc1Oc1cc(F)c(S(=O)(=O)Nc2nccs2)cc1Cl [Compound 35, ethyl 2-((3-(5-chloro-2-(2-chloro-5-fluoro-4-(N-(thiazol-2-yl)sulfamoyl)phenoxy)phenyl)propyl)amino)acetate] | 100 to 500 nM |
|  | O=C(O)CNC(=O)c1cccc(-c2cc(Cl)ccc2Oc2cc(F)c(S(=O)(=O)Nc3ncns3)cc2Cl)n1 [Compound 7, 2-(6-(2-(4-(N-(1,2,4-thiadiazol-5-yl)sulfamoyl)-2-chloro-5-fluorophenoxy)-5-chlorophenyl)picolinamido)acetic acid] | 130 to 1000 nM |
| < 100 nM | CC#CCN(CCCc1cc(Cl)ccc1Oc1cc(F)c(S(=O)(=O)Nc2nccs2)cc1Cl)CC(=O)O [Compound 64, 2-(but-2-yn-1-yl(3-(5-chloro-2-(2-chloro-5-fluoro-4-(N-(thiazol-2-yl)sulfamoyl)phenoxy)phenyl)propyl)amino)acetic acid] |  |
|  | O=C(O)CCNCCCc1cc(Cl)ccc1Oc1cc(F)c(S(=O)(=O)Nc2nccs2)cc1F [Compound 43, 3-((3-(5-chloro-2-(2,5-difluoro-4-(N-(thiazol-2-yl)sulfamoyl)phenoxy)phenyl)propyl)amino)propanoic acid] | 100 to 500 nM |
| < 100 nM | NC(=O)CNCCCc1cc(Cl)ccc1Oc1cc(F)c(S(=O)(=O)Nc2cscn2)cc1F [Compound 69, 2-((3-(5-chloro-2-(2,5-difluoro-4-(N-(thiazol-4-yl)sulfamoyl)phenoxy)phenyl)propyl)amino)acetamide] |  |
|  | CCOC(=O)CN(C)CCCc1cc(Cl)ccc1Oc1cc(F)c(S(=O)(=O)Nc2nccs2)cc1Cl [Compound 68, ethyl 2-((3-(5-chloro-2-(2-chloro-5-fluoro-4-(N-(thiazol-2-yl)sulfamoyl)phenoxy)phenyl)propyl)(methyl)amino)acetate] | 500 to 1000 nM |
| < 100 nM | CCCCCOC(=O)N(CCCc1cc(Cl)ccc1Oc1cc(F)c(S(=O)(=O)Nc2nccs2)cc1Cl)CC(=O)O [Compound 53, 2-((3-(5-chloro-2-(2-chloro-5-fluoro-4-(N-(thiazol-2-yl)sulfamoyl)phenoxy)phenyl)propyl)((pentyloxy)carbonyl)amino)acetic acid] |  |
|  | O=S(=O)(Nc1cscn1)c1cc(Cl)c(Oc2ccc(Cl)cc2CCCNc2cc[nH]n2)cc1F [Compound 45, 4-(2-(3-((1H-pyrazol-3-yl)amino)propyl)-4-chlorophenoxy)-5-chloro-2-fluoro-N-(thiazol-4-yl)benzenesulfonamide] | 1000 to 20000 nM |
| 100 to 1000 nM | O=S(=O)(Nc1cscn1)c1cc(Cl)c(Oc2ccc(Cl)cc2-c2cnn3c2NCCC3)cc1F [Compound 33, 5-chloro-4-(4-chloro-2-(4,5,6,7-tetrahydropyrazolo[1,5-a]pyrimidin-3-yl)phenoxy)-2-fluoro-N-(thiazol-4-yl)benzenesulfonamide] |  |
|  | CNC(=O)CNCCCc1cc(Cl)ccc1Oc1cc(F)c(S(=O)(=O)Nc2cscn2)cc1Cl [Compound 46, 2-((3-(5-chloro-2-(2-chloro-5-fluoro-4-(N-(thiazol-4-yl)sulfamoyl)phenoxy)phenyl)propyl)amino)-N-methylacetamide] | 100 to 500 nM |
|  | O=S(=O)(Nc1nccs1)c1cc(Cl)c(Oc2ccc(Cl)cc2-c2cnn3c2NCCC3)cc1F [Compound 57, 5-chloro-4-(4-chloro-2-(4,5,6,7-tetrahydropyrazolo[1,5-a]pyrimidin-3-yl)phenoxy)-2-fluoro-N-(thiazol-2-yl)benzenesulfonamide] | 100 to 500 nM |
|  | O=S(=O)(Nc1cscn1)c1cc(Cl)c(Oc2ccc(Cl)cc2CCCN2CCc3[nH]ncc3C2)cc1F [Compound 48, 5-chloro-4-(4-chloro-2-(3-(6,7-dihydro-1H-pyrazolo[4,3-c]pyridin-5(4H)-yl)propyl)phenoxy)-2-fluoro-N-(thiazol-4-yl)benzenesulfonamide] | 500 to 1000 nM |
